Measurements published in patent US4157347A, “N-cyano isothioureas” (Bristol-Myers Company, priority 1978, dated 1979).

Columns and labels:
[1] = test system: gastric secretion; details: in words, cited from earlier work
[2] = target: T1, histamine H2-receptors (Cavia porcellus, UniProt P47747); details: literature, in words; cited from earlier work
T1 construct: The spontaneously beating right atrium was dissected free from other tissues; from tissue; host or cells: isolated spontaneously beating right atrium of male Hartley guinea pigs

[3] = in words; cited from earlier work
[4] = target: T1, histamine H2-receptors; test: Histamine H2-receptor antagonism, isolated guinea pig right atria assay; format: cell-based; details: cumulative histamine 1×10^-7 to 3×10^-5 M
Method: Subsequent investigations by Hughes and Coret, Proc. Soc. […] Black et al., Agents and Actions, 3, 133 (1973) and Brimblecombe et al., Fed. […] The present comparative studies were carried out using a modification of the procedure reported by Reinhardt et al., Agents and Actions, 4, 217 (1974).
Male Hartley strain guinea pigs (350-450 gm.) were sacrificed by a blow on the head. The heart was excised and placed in a Petri dish of oxygenated (95% O2, 5% CO2) modified Krebs solution (g./liter: NaCl 6.6, KCl 0.35, MgSO4.7 H2 O 0.295, KH2 PO4 0.162, CaCl2 0.238, NaHCO3 2.1 and dextrose 2.09). The spontaneously beating right atrium was dissected free from other tissues and a silk thread (4-0) attached to each end. The atrium was suspended in a 20 ml. muscle chamber containing oxygenated modified Krebs solution maintained at 32° C. Atrial contractions were recorded isometrically by means of a Grass FT 0.03 force displacement transducer and recordings of contractile force and rate were made with a Beckman RP Dynograph.
A resting tension of 1 g. was applied to the atrium and it was allowed to equilibrate for 1 hour.
Concentration-response curve displacement factors were calculated as follows: [formula] The factor obtained for BL-5641 was then expressed as a ratio of the factor obtained for cimetidine. [formula]

[5] = clinical, in words; cited from earlier work
[6] = test system: H2 receptors; details: in words; cited from earlier work

T1 sequence (P47747 whole entry): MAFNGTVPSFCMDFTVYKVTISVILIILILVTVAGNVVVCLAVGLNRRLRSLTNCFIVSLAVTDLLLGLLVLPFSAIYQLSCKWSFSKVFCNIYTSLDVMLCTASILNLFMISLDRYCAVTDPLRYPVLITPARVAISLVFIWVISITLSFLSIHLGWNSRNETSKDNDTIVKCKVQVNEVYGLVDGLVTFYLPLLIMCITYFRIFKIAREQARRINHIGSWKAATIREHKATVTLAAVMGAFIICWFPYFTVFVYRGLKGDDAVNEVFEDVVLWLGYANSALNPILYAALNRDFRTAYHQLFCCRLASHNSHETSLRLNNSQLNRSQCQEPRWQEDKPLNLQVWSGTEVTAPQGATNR

Compound: CNC(=S)NCCCCc1cnc[nH]1 [Burimamide]
- inhibition of gastric secretion ([1]; animals and man): inhibits gastric secretion in animals and man
- clinical effectiveness as H2 receptor antagonist [1]: first clinically effective H2 receptor antagonist
- effect on histamine H2-receptors / contractile rate of guinea pig right atria [2]: a competitive antagonist of these receptors
- oral absorption [3]: oral absorption is poor

Compound: NCCc1c[nH]cn1 [Histamine]
- concentration of maximal response (histamine-induced increase in atrial rate) [4]: 30 µM
- effect on histamine H2-receptors / contractile rate of guinea pig right atria [2]: concentration-related increases in the contractile rate

Compound: CNC(=S)NCCSCc1[nH]cnc1C [Metiamide]
- toxicity (agranulocytosis) [5]: toxicity (agranulocytosis)
- H2 antagonist potency/effectiveness [6]: more potent than burimamide
- oral activity in man [3]: orally active in man
